Tests used:
[1] = Alcohol solubility of E6020 and MPL in ethanol by nephelometry
Method: The appearance and increase of opalescence, indicative of insolubility was followed by nephelometry.
RNU (Relative nephelometry Unit) of each solution was recorded and plotted on a graph.

sheep red blood cells = assay: Hemolysis assay; type: cell-based; details: 30 minutes at 37° C.
Method: Before use, red blood cells (Sheep red blood cells 10%, Rockland, ref R405-0050, lot BP30202 (stored+4° C.) were washed in cold PBS. Five mL of sheep red blood cells were transferred into a 15 mL Falcon tube and 7 mL of cold PBS were added. Cells were centrifuged for 10 min 700 g at 4° C. Supernatant was carefully removed and cell pellet was suspended in 12 mL of cold PBS. Then, cell suspension was centrifuged for 10 min, 700 g at 4° C. The cell suspension and centrifugation steps were repeated twice. Finally, cells were suspended in PBS in a final volume of 5 mL ready-to-use.
In a round bottom P96 plate, 100 μL per well of PBS were added. Then, 100 μL per well of saponin QS21 or QS7 solutions were added in serial 2-fold dilutions (1.6 μM to 200 μM-) in a citrate buffer (Citrate 10 mM, NaCl 140 mM, pH 6.3). […]
Twenty-five μL/well of 10% red blood cell solution were added, and the plates were incubated for 30 minutes at 37° C. and then were centrifuged for 5 min 700 g at room temperature. Eighty μL per well of surnageant were collected and transfered to a flat bottom plate for spectrophotometer reading (OD 540 nm). The percentage of cell hemolysis is calculated for each saponin concentration tested in μM according to the formula: 100×[(sample absorbance−negative control absorbance)[…](positive control absorbance−negative control absorbance)]. […]

| Substance | appearance of ethanol solution (opalescence) ([1]; 0.5, 1.0, 2.0 and 10 mg/ml in absolute ethanol, mixed 3h at room temperature) | solubility in ethanol ([1]; absolute ethanol, room temperature (about 25° C.), nephelometry) | EC50 (sheep red blood cells; read-out: effective concentration inducing hemolysis of 50% red blood cells (EC50)) [µM] | erythrocyte hemolysis (sheep red blood cells; from 25 μM to 100 μM) [%] |
| --- | --- | --- | --- | --- |
| 3-O-desacyl-4′-monophosphoryl lipid A [MPL] | opalescent even at the lowest concentration tested | very low solubility | – | – |
| QS21 | – | – | 4.2 | 100 |

Reference: US20230398211A1, “Liposomes Containing TLR4 Agonist, Preparation and Uses Thereof” (priority 2020, published 2023)
